Series [1] relates to MDA-MB-231Luc2-TdTomato cells. The experiment in a line: Spontaneous human breast cancer metastasis to human bone implants. Type of series: in vivo, NOD SCID mice. As for the experimental part:
FIG. 4. Pharmacological blockade of IL-1B inhibits spontaneous metastasis to human bone in vivo. Female NOD-SCID mice bearing two 0.5 cm^3 pieces of human femoral bone received intra-mammary injections of MDA-MB-231Luc2-TdTomato cells. […] All animals were culled 35 days following tumour cell injection. Effects on bone metastases (a) were assessed in vivo and immediately post-mortem by luciferase imaging and confirmed ex vivo on histological sections. Data are shown as numbers of photons per second emitted 2 minutes following sub-cutaneous injection of D-luciferin. Effects on numbers of tumour cells detected in the circulation are shown in (b). *=P<0.01. **=P<0.001. ***=P<0.0001.
(§1) To model human breast cancer metastasis to human bone implants two human bone discs were implanted subcutaneously into 10-week old female NOD SCID mice (n=10/group) under isofluorane anaesthetic. Mice received an injection of 0.003 mg vetergesic and Septrin was added to the drinking water for 1 week following bone implantation. Mice were left for 4 weeks before injecting 1×10^5 MDA-MB-231 Luc2-TdTomato, MCF7 Luc2 or T47D Luc2 cells in 20% Martigel/79% PBS/1% toluene blue into the two hind mammary fat pads. Primary tumor growth and development of metastases was monitored weekly using an IVIS […] system (Caliper Life Sciences) following sub-cutaneous injection of 30 mg/ml D-luciferin (Invitrogen). On termination of experiments mammary tumors, circulating tumor cells, serum and bone metastases were resected. RNA was processed for downstream analysis by real time PCR, and cell lysates were taken for protein analysis and whole tissue for histology as previously described (Nutter et al., 2014; Ottewell et al., 2014a). […] Tumor cells, serum, and bone were subsequently resected for downstream analysis. Bone metastases were investigated following injection of 5×10^5 MDA-MB-231 GFP (control), MDA-MB-231-IV, MDA-MB-231-IL-1B-positive or MDA-MB-231-IL-1R1-positive cells into the lateral tail vein of 6 to 8-week old female BALB/c nude mice (n=12/group). Tumor growth in bones and lungs was monitored weekly by GFP imaging in live animals. Mice were culled 28 days after tumor cell injection at which timepoint hind limbs, lungs and serum were resected and processed for microcomputed tomography imaging (pCT), histology and ELISA analysis of bone turnover markers and circulating cytokines as described (Holen et al., 2016).
Whole blood was centrifuged at 10,000×g for 5 minutes and the serum removed for ELISA assays. The cell pellet was re-suspended in 5 ml of FSM lysis solution (Sigma-Aldrich, Pool, UK) to lyse red blood cells. Remaining cells were re-pelleted, washed 3× in PBS and re-suspended in a solution of PBS/10% FCS. Samples from 10 mice per group were pooled prior to isolation of TdTomato positive tumor cells using a MoFlow High performance cell sorter (Beckman Coulter, Cambridge UK) with the […] laser line from a Coherent I-90C tenable argon ion (Coherent, Santa Clara, Calif.). TdTomato fluorescence was detected by a 555LP dichroic long pass and a 580/30 nm band pass filter. Acquisition and analysis of cells was performed using Summit 4.3 software. After sorting, cells were immediately placed in RNA protect cell reagent (Ambion, Paisley, Renfrew, UK) and stored at −80° C. before RNA extraction. For counting numbers of circulating tumor cells, TdTomato fluorescence was detected using a 561 nm laser and an YL1-A filter (585/16 emission filter). Acquisition and analysis of cells was performed using Attune N×T software.

Series [2] deals with CD34+ blood vessels in trabecular bone. The experiment in a line: Bone microvasculature after suppression of IL-1β signalling. In kind it is in vivo, BALB/c nude mice and C57BL/6 mice. The protocol: FIG. 7. IL-1β in the bone microenvironment stimulates expansion of the bone metastatic niche. Effects of adding 40 pg/ml or 5 ng/ml recombinant IL-1β to MDA-MB-231 or T47D breast cancer cells is shown in (a) and effects on adding 20 pg/ml, 40 pg/ml or 5 ng/ml IL-1B on proliferation of HS5, bone marrow, or OB1, osteoblasts, are shown in b) and c) respectively. (d) IL-1 driven alterations to the bone vasculature was measured following CD34 staining in the trabecular region of the tibiae from 10-12-week old female IL-1R1 knockout mice. […] Data are shown as mean+/−SEM, *=P<0.01, **=P<0.001, ***=P<0.0001.
FIG. 8. Suppression of IL-1β signalling affects bone integrity and vasculature. […] Data shown are mean+/−SEM, *=P<0.01, **=P<0.001, ***=P<0.0001 compared with control.
as §1

Series [3] relates to hsCRP. The experiment in a line: hsCRP change after gevokizumab treatment in type 2 diabetes patients. In kind it is in vivo, human. Particulars: top dose 0.3 mg/kg (~20 mg) Q4W. An excerpt: FIG. 12. Clinical data after gevokizumab treatment (panel a) and its extrapolation to higher doses (panels b, c, and d). Adjusted percent change from baseline in hsCRP in patients in a). The hsCRP exposure-response relationship is shown in b) for six different hsCRP base line concentrations.

Series [4] is described as follows: Gevokizumab clinical pharmacokinetics. Type of series: in vivo, human.
Series [5] concerns SW480. Description: CRC SW480 xenograft in humanized BLT mice. Type of series: in vivo, humanized mouse. As for the experimental part:
(§2) • I. Tumor models: The role of IL-1β in tumor immunity and efficacy of IL-1β blocking antibodies were tested in the following preclinical models: • Xenograft tumors in humanized mouse models: NSCLC (H358), TNBC (MDA-MB231) and CRC (SW480) • Syngeneic tumor models: TNBC (4T1) and lung (LL-2) cancer • II. […] Combination treatments include chemotherapeutic agent, docetaxel (6.25 mg/Kg QW IV), PD-1 pathway inhibitors (anti-human PD-1, pembrolizumab 10 mg/Kg Q5D IP or anti-mouse PD-1, clone 1D2 10 mg/Kg QW IP) and anti-mouse VEGF blocking antibody (clone 4G3, 5 mg/Kg Q5D) were used in combination with anti-IL-1β antibody. Appropriate isotype controls were used. In all experiments, dosing was initiated after tumor implantation. • III. Experimental readouts: activity of therapeutic agents in preclinical models were assessed by the following: • Tumor volume was determined by measurement with calipers throughout the course of the study. Tumor weights in milligrams were determined at end of study • Immunohistochemistry analysis was performed on FFPE NSCLC (H358) xenograft tissue • Changes in immune populations in peripheral blood in CRC (SW480) xenograft humanized model and tumors in syngeneic models (4T1 and LL-2) were assessed by flow cytometry using markers for T cell, myeloid populations
Background: Xenograft models place foreign cells or tissue in a host animal.

Series [6] relates to LL2. The experiment in a line: Anti-IL-1β in combination with docetaxel in aggressive lung model (LL2). Type of series: in vivo, mouse. The protocol:
Preclinical Data on the Efficacy of Canakinumab in Combination with Docetaxel in the Treatment of Cancer.
as §2, with “In all experiments, dosing was initiated after tumor implantation. • III.” left out

For series [7], the system named is 4T1 tumors. Description: 4T1 tumors treated with 01BSUR and docetaxel. In kind it is in vivo, Balb/c mice. As for the experimental part:
Treatment of 4T1 Tumors with 01BSUR and Docetaxel Leads to Alterations in the Tumor Microenvironment. Female Balb/c mice with 4T1 tumors implanted subcutaneously (s.c.) on the right flank were treated 8 and 15 days post-tumor implant initiating when the tumors reached about 100 mm^3 with the isotype antibody, docetaxel, 01BSUR, or a combination of docetaxel and 01BSUR. […] 5 days after the first dose, tumors were harvested and analyzed for changes to the infiltrating immune cell populations. This was done again at the end point of the study, 4 days after the second dose.
as §2

Series [8] has as its system HR-positive, HER2-negative advanced breast cancer. Particulars: added to first-line endocrine therapy with tamoxifen/NSAI plus goserelin, pre- and peri-menopausal women; cited from earlier work.

For “IL-1Ra: IL-1R antagonist (Anakinra) used to inhibit IL-1β signaling”, the “mice with metastasis detected in human bone implants” value in series [1] (IL-1Ra 1 mg/kg daily, canakinumab sc every 14 days, from 7 days after tumor cell injection, control 7 out of 10) is listed as 4 out of 10. Also, in series [1] (luciferase imaging, vs control group), the “size of bone metastases” value is recorded as “smaller than those detected in the control group”. The “tumor cells counted in whole blood” value in series [1] (placebo 108 tumor cells/ml) was 3 tumor cells/ml. The “average length of CD34+ blood vessels in trabecular bone” value in series [2] (IL-1Ra 1 mg/kg daily (BALB/c nude), canakinumab single dose (C57BL/6), p<0.01) was “reduced the average length”. Besides, the “endothelin 1 concentration (ELISA)” value in series [2] (compared with control, p<0.01) is reported as “reduced concentrations”. In addition, the “VEGF concentration (ELISA)” value in series [2] (compared with control, p<0.01 IL-1R antagonist, p<0.001 canakinumab) is “reduced concentrations”.

For “gevokizumab: high-affinity, humanized monoclonal antibody of the IgG2 isotype to interleukin-1β”, the “reduction of hsCRP” value in series [3] is “up to 45%”. Moreover, the Bioavailability entry in series [4] (administered subcutaneously) is on record as “about 56%”. Also, the pharmacokinetic model result in series [4] (after subcutaneous administration) is listed as “linear two-compartment model with first order absorption”. Moreover, in series [5] (one of two experiments), the “animals with significant reduction in tumor volume” value is listed as 100 % of animals. For the same compound, the “animals with slower tumor growth” value in series [5] (second experiment, compared to isotype control) is 80 % of animals.

For `CC(=O)O[C@@]12CO[C@@H]1C[C@H](O)[C@@]1(C)C(=O)[C@H](O)C3=C(C)[C@@H](OC(=O)[C@H](O)[C@@H](NC(=O)OC(C)(C)C)c4ccccc4)C[C@@](O)([C@@H](OC(=O)c4ccccc4)[C@H]21)C3(C)C` [docetaxel], in series [6], the “efficacy (tumor growth)” value is “modest efficacy”. Besides, in series [7] (5 days after a single dose), the “granulocytic MDSC” value is reported as “decrease in granulocytic MDSC” and the “neutrophils in 4T1 tumors” value is “decrease in neutrophils”. The “CD4+ and CD8+ T cells expressing TIM-3” value in series [7] (four days after a second dose, vs control group) is on record as “no change in the TIM-3 expressing cells”. The tumor growth entry in series [7] (treated days 8 and 15 post tumor implant, vs vehicle/isotype control) is listed as “delay was enhanced”.

As for `CN(C)C(=O)c1cc2cnc(Nc3ccc(N4CCNCC4)cn3)nc2n1C1CCCC1` [ribociclib], the “progression-free survival (PFS)” value in series [8] is on record as “significantly prolonged progression-free survival”.
